Data as given in patent US20020049257A1, “Antibacterial composition” (priority 2000, published 2002).

What was measured:
[1] = tested on: Ax 26 Corynebacterium sp.; test: MIC microtiter plate test, axilla strain Ax 26; assay type: cell-based; details: for Minimal inhibitory concentration (MIC) Ax 26: at least 80% growth inhibition, 24 h, 36° C., Table 1; for Bacteriostatic activity Corynebact. Ax 26: at least 80% reduction in growth during 24 hours, Table 7
Text: (§1) The different bacterial strains had been isolated from the human axilla by current microbiological practice. They were taxonomically identified by cell morphology, gram-reaction, and biochemical tests included in the Api coryne test kit (BioMerieux, France). Strain Staphylococcus epidermidis Ax25 was identified by fatty acid methyl ester analysis (FAME; German type strain collection DSMZ, Germany). The strains were maintained on Tryptic soy broth plates, this standard medium being amended with 5 g per Liter of Tween 80 and 1 g of Soybean lecithin. Plates were incubated at 36° C. for a period 48 hours. The bacteria were then swabbed from the plates and suspended in 4 ml of Muller-Hinton broth amended with 100 mg of Tween 80 per Liter (MH-Tween) and incubated again at 360 C for 16 hours. Following incubation the bacterial suspensions were diluted in MH-Tween to obtain a final cell density of 10^6 colony forming units per ml. For each fragrance material four microtiter plates were used in the example, each microtiter plate having 8 rows, A-H, and 12 columns, 1-12. To each column a diluted suspension of a different test organism was distributed, 100 μl per well. 1% stock solutions of the fragrance materials were then prepared in MH-Tween broth. The fragrance material was dispersed by ultrasonication into the aqueous medium to obtain a homogenous emulsion. 100 μl per well of this emulsion was then added to the first row of the microtiter plates already containing the target organisms. Serial dilution series were then prepared starting at row A and continuing until row G, each time removing 100 μl from a well and transferring it to the next well. In this way fragrance concentrations of 0.5%, 0.25%, 0.125%, 0.0625%, 0.03125%, 0.0156%, and 0.0078% were tested for their antibacterial efficacy. The reference compound Triclosan was tested at 16-fold lower concentrations. The plates were covered with plastic films and incubated for 24 h at 36° C. with shaking at 250 rpm. The turbidity developing in the microtiter plates was then examined after 24 h to determine microbial growth. The minimal concentration of fragrance inhibiting the growth of an organism by at least 80% was determined as the minimal inhibitory concentration (MIC).
Ax 25 was identified as Staphylococcus epidermidis by FAME analysis. Identification with the Api Coryne test kit yielded the following species assignments for the remainder of the strains: Ax 26 Corynebacterium sp.; Ax 3 Corynebacterium bovis; Ax 7 Corynebacterium group G; Ax 10 Corynebacterium jeikeium; Ax 11 Corynebacterium jeikeium; Ax 12 Corynebacteriurn jeikeium; Ax 15 Corynebacterium jeikeium; Ax 20 Corynebacterium striatum/amycolatum; and Ax 19 Corynebacterium jeikeium. The strains were isolated from the axilla of 8 human volunteers. […]

[2] = tested on: Ax 3 Corynebacterium bovis; test: MIC microtiter plate test, axilla strain Ax 3; assay type: cell-based; details: at least 80% growth inhibition, 24 h, 36° C.; Table 1
Text: as §1, with “The minimal concentration of fragrance inhibiting the growth of an organism by at least 80% was determined as the minimal inhibitory concentration (MIC).” left out

[3] = tested on: Ax 7 Corynebacterium group G; test: MIC microtiter plate test, axilla strain Ax 7; assay type: cell-based; details: for Minimal inhibitory concentration (MIC) Ax 7: at least 80% growth inhibition, 24 h, 36° C., Table 1
Text: as §1
(§2) Ax 25 was identified as Staphylococcus epidermidis by FAME analysis. Identification with the Api Coryne test kit yielded the following species assignments for the remainder of the strains: Ax 26 Corynebacterium sp.; Ax 3 Corynebacterium bovis; Ax 7 Corynebacterium group G; Ax 10 Corynebacterium jeikeium; Ax 11 Corynebacterium jeikeium; Ax 12 Corynebacteriurn jeikeium; Ax 15 Corynebacterium jeikeium; Ax 20 Corynebacterium striatum/amycolatum; and Ax 19 Corynebacterium jeikeium. The strains were isolated from the axilla of 8 human volunteers. Based on biochemical tests and colony morphology all strains were distinct from each other, even the several strains all belonging to Corynebacterium jeikelurn.

[4] = tested on: Ax 11 Corynebacterium jeikeium; test: MIC microtiter plate test, axilla strain Ax 11; assay type: cell-based; details: at least 80% growth inhibition, 24 h, 36° C.; Table 1
Text: as §1, with “The minimal concentration of fragrance inhibiting the growth of an organism by at least 80% was determined as the minimal inhibitory concentration (MIC).” left out

[5] = tested on: Ax 12 Corynebacteriurn jeikeium; test: MIC microtiter plate test, axilla strain Ax 12; assay type: cell-based, Corynebacterium jeikeium; details: at least 80% growth inhibition, 24 h, 36° C.; Table 1
Text: as §1, with “The minimal concentration of fragrance inhibiting the growth of an organism by at least 80% was determined as the minimal inhibitory concentration (MIC).” left out

[6] = tested on: Ax 15 Corynebacterium jeikeium; test: MIC microtiter plate test, axilla strain Ax 15; assay type: cell-based; details: for Minimal inhibitory concentration (MIC) Ax 15: at least 80% growth inhibition, 24 h, 36° C., Table 1; for Bacteriostatic activity Corynebact. Ax 15: at least 80% reduction in growth during 24 hours, Table 7
Text: as §1, §2

[7] = tested on: Ax 20 Corynebacterium striatum/amycolatum; test: MIC microtiter plate test, axilla strain Ax 20; assay type: cell-based; details: at least 80% growth inhibition, 24 h, 36° C.; Table 1
Text: as §1, with “The minimal concentration of fragrance inhibiting the growth of an organism by at least 80% was determined as the minimal inhibitory concentration (MIC).” left out

[8] = tested on: Ax 10 Corynebacterium jeikeium; test: MIC microtiter plate test, axilla strain Ax 10; assay type: cell-based; details: at least 80% growth inhibition, 24 h, 36° C.; Table 1
Text: (§3) The different bacterial strains had been isolated from the human axilla by current microbiological practice. They were taxonomically identified by cell morphology, gram-reaction, and biochemical tests included in the Api coryne test kit (BioMerieux, France). Strain Staphylococcus epidermidis Ax25 was identified by fatty acid methyl ester analysis (FAME; German type strain collection DSMZ, Germany). The strains were maintained on Tryptic soy broth plates, this standard medium being amended with 5 g per Liter of Tween 80 and 1 g of Soybean lecithin. Plates were incubated at 36° C. for a period 48 hours. The bacteria were then swabbed from the plates and suspended in 4 ml of Muller-Hinton broth amended with 100 mg of Tween 80 per Liter (MH-Tween) and incubated again at 360 C for 16 hours. Following incubation the bacterial suspensions were diluted in MH-Tween to obtain a final cell density of 10^6 colony forming units per ml. For each fragrance material four microtiter plates were used in the example, each microtiter plate having 8 rows, A-H, and 12 columns, 1-12. To each column a diluted suspension of a different test organism was distributed, 100 μl per well. 1% stock solutions of the fragrance materials were then prepared in MH-Tween broth. The fragrance material was dispersed by ultrasonication into the aqueous medium to obtain a homogenous emulsion. […]

[9] = tested on: Ax 19 Corynebacterium jeikeium; test: MIC microtiter plate test, axilla strain Ax 19; assay type: cell-based; details: at least 80% growth inhibition, 24 h, 36° C.; Table 1
Text: as §3

[10] = tested on: Brevibacterium epidermidis DSMZ 9586; test: MIC against Brevibacterium epidermidis; assay type: cell-based; details: DSMZ 9586, method of Example 1
Text: as §1
A selection of perfume compounds were tested against Brevibacterium epidermidis DSMZ 9586 (German Collection of Microorganisms and Cell Cultures) with the method described in Example 1.

[11] = tested on: Propionibacterium acnes DSMZ1897; test: MIC against Propionibacterium acnes, anaerobic, 72 hours; assay type: cell-based; details: DSMZ1897, anaerobic conditions
[12] = tested on: Corynebacteria; test: MIC against Corynebacteria (average / overall); assay type: cell-based, Corynebacterium; details: malodor forming axilla bacteria
Text: as §3, with “1-12.” for “1-12. To each column a diluted suspension of a different test organism was distributed, 100 μl per well. 1% stock solutions of the fragrance materials were then prepared in MH-Tween broth. The fragrance material was dispersed by ultrasonication into the aqueous medium to obtain a homogenous emulsion.”
Since sandela is known to be a mixture of different reaction products, commercial sandela was subjected to a distillation process. […] The different fractions were evaluated for their antimicrobial activity (Table 6) with the method described in example 1. […]

SMILES | Minimal inhibitory concentration (MIC) Ax 3 [2] [% weight/ volume] | Minimal inhibitory concentration (MIC) Ax 7 [3] [% weight/ volume] | Minimal inhibitory concentration (MIC) Ax 11 [4] [% weight/ volume] | Minimal inhibitory concentration (MIC) Ax 12 [5] [% weight/ volume] | Minimal inhibitory concentration (MIC) Ax 15 [6] [% weight/ volume] | Minimal inhibitory concentration (MIC) Ax 20 [7] [% weight/ volume] | Bacteriostatic activity Corynebact. Ax 15 [6] | MIC for Brevibacterium epidermidis [10] [% w/v] | MIC for Propionibacterium acnes [11] [% w/v] | other results
CC1=CCC(/C=C\C(C)C(C)O)C1(C)C (stereo not drawn) [Ebanol] | 0.1250 | 0.1250 | 0.2500 | 0.2500 | 0.2500 | 0.1250 |  |  |  | Minimal inhibitory concentration (MIC) Ax 26 [1]: 0.1250 % weight/ volume
CC(C)=CCCC(C)=CCCC(C)=CCO [Farnesol, 3,7,11-trimethyl-2,6,10-dodecatrien-1-ol] | 0.0156 |  |  | 0.0137 | 0.0156 | 0.0137 | 0.0156 percent (w/v) | 0.0078 | 0.0078 | Minimal inhibitory concentration (MIC) Ax 10 [8]: 0.0078 % weight/ volume; Minimal inhibitory concentration (MIC) Ax 19 [9]: 0.0156 % weight/ volume
COC1CC(C2CC3CC2C(C)C3(C)C)CCC1O (stereo not drawn) [2-methoxy-4-(5,5,6-trimethylbicyclo[2.2.1]hept-2-yl)cyclohexan-1-ol] |  |  |  |  |  |  |  |  |  | activity against Corynebacteria (in words) [12]: highest activity
CC1=CCC(CCC(C)C(C)O)C1(C)C (stereo not drawn) [Sandalore] | 0.1250 | 0.1250 | 0.1250 | 0.1250 |  | 0.1250 |  | 0.0937 | 0.25 | Minimal inhibitory concentration (MIC) Ax 26 [1]: 0.1250 % weight/ volume; Minimal inhibitory concentration (MIC) Ax 10 [8]: 0.1250 % weight/ volume
CCC(=CCC1CC=C(C)C1(C)C)CO (stereo not drawn) [Radjanol] |  | 0.0625 |  |  |  |  |  | 0.03125 |  | 
COC1CC(C2CC3CC2C(C)C3(C)C)CCC1O (single isomer, unassigned) [Peak B] |  |  |  |  |  |  | 0.0028 percent (w/v) |  |  | Bacteriostatic activity Corynebact. Ax 26 [1]: 0.0016 percent (w/v)
Oc1cc(Cl)ccc1Oc1ccc(Cl)cc1Cl [Triclosan, 2,4,4′-trichloro-2′-hydroxy-diphenyl-ether] |  | 0.0029 | 0.0029 |  | 0.0029 |  |  | 0.003125 | 0.00039 | Bacteriostatic activity Corynebact. Ax 7 ([3]; at least 80% reduction in growth during 24 hours, Table 7): 0.0025 percent (w/v)
COC1CC(C2CC3CC2C(C)C3(C)C)CCC1O (single isomer, unassigned) [Peak A] |  |  |  |  |  |  | 0.0048 percent (w/v) |  |  | Bacteriostatic activity Corynebact. Ax 26 [1]: 0.0028 percent (w/v)
COC1CCC(C2CC3CC2C(C)C3(C)C)CC1O (stereo not drawn) [2-methoxy-5-(5,5,6-trimethyl-bicyclo[2.2.1]hept-2-yl)cyclohexan-1-ol] |  |  |  |  |  |  |  |  |  | activity against Corynebacteria (in words) [12]: highest activity
